Measurements from patent US9745261B2, “Inhibitors of the MITF molecular pathway” (THE GENERAL HOSPITAL CORPORATION, priority 2013, dated 2017).

Tests used:
TRPM1 = experiment: qPCR assay for TRPM1 expression in SK-MEL-5 cells; assay type: cell-based; settings: Homo sapiens; SK-MEL-5 melanoma cells, up to 35 μM; read-out: TRPM-1 qPCR assay EC50
SK-MEL-5 cells = experiment: SK-MEL-5 cell cytotoxicity assay (CellTiter-Glo); assay type: cell-based, human; settings: Homo sapiens, SK-MEL-5; 24 hours, CellTiter-Glo; read-out: Target Potency IC50 (μM) SKMEL5
Experimental: SK-MEL-5 cells were treated with compounds for 24 hours, and then cell viability was measured using the CellTiter-Glo Assay (Promega), a luciferase-based reagent that measures cellular ATP levels. The compounds were tested at different concentrations to determine IC50 values. Compounds that were active in the primary assay and toxic below 30 μM at 24 hours were considered for probe development. Data were normalized against DMSO in Genedata Screener's Assay Analyzer.
SK-MEL-5 cells were maintained in DMEM (10% FBS, 1% Pen-Strep-Glutamine). Cells were fluid changed every 3 days and/or split upon reaching 100% confluency. For secondary assays, cells were thawed at 4 million cells per Falcon T175 flask. After 3 days, the cells were fluid changed, after 3 more days cells were passed to a Corning Triple flask (10-15 million cells) and plated after 3 days in the triple flask.
Day 1 • 1. Plate SK-MEL-5 cells at 3,000 per well in 30 uL media (phenol red free DMEM/10% Fetal Bovine Serum/Penicillin/Streptomycin/L-Glutamine) • 2. Use Corning white 384-well, square, opaque-bottomed plates (Corning Catalog No. 8867BC)
Day 2 • 3. Pin 100 nL compound/DMSO solution (Cybi Well) into assay plates. (For HTS, required sentinel pinning with the positive control, parthenolide (6 mM)) • 4. […]
Day 3 • 5. […] Read on the Perkin-Elmer EnVision plate reader with luminescence (LUM) settings for 0.1 sec per well. […]

Melatonin MT1 = target: T1, Melatonin MT1 (Homo sapiens, UniProt P48039); experiment: Radioligand binding, Melatonin MT1
T1 construct: Eurofins Panlabs, Inc
T1 sequence (P48039 whole entry): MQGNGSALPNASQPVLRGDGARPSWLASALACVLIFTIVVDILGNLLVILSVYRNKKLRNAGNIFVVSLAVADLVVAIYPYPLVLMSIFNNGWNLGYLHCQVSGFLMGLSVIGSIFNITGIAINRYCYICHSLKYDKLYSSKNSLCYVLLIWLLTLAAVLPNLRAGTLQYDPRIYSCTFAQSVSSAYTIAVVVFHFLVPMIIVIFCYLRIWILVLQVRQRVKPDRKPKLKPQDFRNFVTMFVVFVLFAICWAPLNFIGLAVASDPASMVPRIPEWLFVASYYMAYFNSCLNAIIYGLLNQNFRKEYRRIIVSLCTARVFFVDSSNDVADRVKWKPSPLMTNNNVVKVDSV

[1] = target: T2, Epidermal Growth Factor (EGF) (Homo sapiens, UniProt P00533); experiment: Radioligand binding, Epidermal Growth Factor (EGF)
T2 construct: Eurofins Panlabs, Inc. (contract assay)

Potassium Channel hERG = target: T3, Potassium Channel hERG (Homo sapiens, UniProt Q12809); experiment: Radioligand binding, Potassium Channel hERG
T3 construct: Eurofins Panlabs
T3 sequence (Q12809 whole entry): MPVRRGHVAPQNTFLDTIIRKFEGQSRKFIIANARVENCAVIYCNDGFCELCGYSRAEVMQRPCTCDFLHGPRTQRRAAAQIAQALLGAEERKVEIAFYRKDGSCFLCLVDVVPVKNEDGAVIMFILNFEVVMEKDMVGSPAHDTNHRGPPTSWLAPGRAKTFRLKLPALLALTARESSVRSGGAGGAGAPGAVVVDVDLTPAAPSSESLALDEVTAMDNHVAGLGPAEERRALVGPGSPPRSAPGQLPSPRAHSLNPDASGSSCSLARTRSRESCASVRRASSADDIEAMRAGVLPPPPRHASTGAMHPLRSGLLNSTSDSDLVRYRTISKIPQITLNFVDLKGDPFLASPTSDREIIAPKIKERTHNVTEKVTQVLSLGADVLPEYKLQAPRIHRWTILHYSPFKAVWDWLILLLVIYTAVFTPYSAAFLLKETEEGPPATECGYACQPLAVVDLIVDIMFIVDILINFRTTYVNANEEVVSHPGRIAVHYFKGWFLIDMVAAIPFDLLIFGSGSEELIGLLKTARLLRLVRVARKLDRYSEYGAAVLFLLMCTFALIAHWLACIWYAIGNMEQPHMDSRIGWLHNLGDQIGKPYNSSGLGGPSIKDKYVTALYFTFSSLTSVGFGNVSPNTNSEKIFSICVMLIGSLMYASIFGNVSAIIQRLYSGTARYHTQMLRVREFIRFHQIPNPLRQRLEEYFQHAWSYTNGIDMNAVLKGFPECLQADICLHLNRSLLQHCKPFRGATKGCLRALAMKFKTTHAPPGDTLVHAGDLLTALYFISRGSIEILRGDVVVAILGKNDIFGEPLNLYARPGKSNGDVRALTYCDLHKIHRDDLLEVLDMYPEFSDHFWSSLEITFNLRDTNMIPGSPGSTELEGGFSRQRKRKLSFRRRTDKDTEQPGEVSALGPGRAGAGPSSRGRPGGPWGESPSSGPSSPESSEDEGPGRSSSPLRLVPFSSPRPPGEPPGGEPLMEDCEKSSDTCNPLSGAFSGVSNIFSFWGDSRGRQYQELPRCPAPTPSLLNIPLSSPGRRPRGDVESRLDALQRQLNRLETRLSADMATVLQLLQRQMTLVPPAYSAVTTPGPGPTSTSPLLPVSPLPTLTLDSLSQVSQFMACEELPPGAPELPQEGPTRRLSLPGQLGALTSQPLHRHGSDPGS

[2] = target: T4, Platelet Activating Factor (PAF) (Homo sapiens, UniProt P25105); experiment: Radioligand binding, Platelet Activating Factor (PAF)
T4 construct: Eurofins Panlabs

[3] = target: T5, Serotonin (5-Hydroxytryptamine) 5-HT1A (Homo sapiens, UniProt P08908); experiment: Radioligand binding, Serotonin (5-Hydroxytryptamine) 5-HT1A
T5 construct: Eurofins Panlabs
T5 sequence (P08908 whole entry): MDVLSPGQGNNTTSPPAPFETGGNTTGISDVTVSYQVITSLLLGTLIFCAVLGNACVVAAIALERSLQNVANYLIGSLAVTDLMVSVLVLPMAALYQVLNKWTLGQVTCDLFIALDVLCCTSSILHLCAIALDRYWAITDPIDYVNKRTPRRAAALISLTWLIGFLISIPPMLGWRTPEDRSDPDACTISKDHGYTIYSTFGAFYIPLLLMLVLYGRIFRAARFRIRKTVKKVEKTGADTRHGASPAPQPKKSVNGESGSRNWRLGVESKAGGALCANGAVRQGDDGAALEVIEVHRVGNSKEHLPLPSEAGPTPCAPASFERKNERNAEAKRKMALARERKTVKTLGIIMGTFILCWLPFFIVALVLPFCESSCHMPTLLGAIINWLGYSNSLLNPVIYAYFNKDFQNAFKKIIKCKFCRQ

Dopamine D3 = target: T6, Dopamine D3 (Homo sapiens, UniProt P35462); experiment: Radioligand binding, Dopamine D3
T6 construct: Eurofins Panlabs, Inc. (contract assay)

Adrenergic α1D = target: T7, Adrenergic α1D (Homo sapiens, UniProt P25100); experiment: Radioligand binding, Adrenergic α1D
T7 construct: Eurofins Panlabs, Inc. (contract assay)

[4] = target: T8, Nicotinic Acetylcholine α1, Bungarotoxin (Homo sapiens, UniProt P02708+P07510+Q07001); experiment: biochemical; assay type: binding; settings: read-out: % Inh.
T8 construct: Eurofins Panlabs, Inc

Interleukin IL-1 = target: T9, Interleukin IL-1 (Mus musculus, UniProt P13504); experiment: Radioligand binding, Interleukin IL-1
T9 construct: Eurofins Panlabs, Inc

Muscarinic M2 = target: T10, Muscarinic M2 (Homo sapiens, UniProt P08172); experiment: Radioligand binding, Muscarinic M2
T10 construct: Eurofins Panlabs, Inc

Potassium Channel [KATP] = target: T11, Potassium Channel [KATP] (Cricetus cricetus, UniProt Q09427); experiment: Radioligand binding, Potassium Channel [KATP]; settings: hamster
T11 construct: Eurofins Panlabs
T11 sequence (Q09427 whole entry): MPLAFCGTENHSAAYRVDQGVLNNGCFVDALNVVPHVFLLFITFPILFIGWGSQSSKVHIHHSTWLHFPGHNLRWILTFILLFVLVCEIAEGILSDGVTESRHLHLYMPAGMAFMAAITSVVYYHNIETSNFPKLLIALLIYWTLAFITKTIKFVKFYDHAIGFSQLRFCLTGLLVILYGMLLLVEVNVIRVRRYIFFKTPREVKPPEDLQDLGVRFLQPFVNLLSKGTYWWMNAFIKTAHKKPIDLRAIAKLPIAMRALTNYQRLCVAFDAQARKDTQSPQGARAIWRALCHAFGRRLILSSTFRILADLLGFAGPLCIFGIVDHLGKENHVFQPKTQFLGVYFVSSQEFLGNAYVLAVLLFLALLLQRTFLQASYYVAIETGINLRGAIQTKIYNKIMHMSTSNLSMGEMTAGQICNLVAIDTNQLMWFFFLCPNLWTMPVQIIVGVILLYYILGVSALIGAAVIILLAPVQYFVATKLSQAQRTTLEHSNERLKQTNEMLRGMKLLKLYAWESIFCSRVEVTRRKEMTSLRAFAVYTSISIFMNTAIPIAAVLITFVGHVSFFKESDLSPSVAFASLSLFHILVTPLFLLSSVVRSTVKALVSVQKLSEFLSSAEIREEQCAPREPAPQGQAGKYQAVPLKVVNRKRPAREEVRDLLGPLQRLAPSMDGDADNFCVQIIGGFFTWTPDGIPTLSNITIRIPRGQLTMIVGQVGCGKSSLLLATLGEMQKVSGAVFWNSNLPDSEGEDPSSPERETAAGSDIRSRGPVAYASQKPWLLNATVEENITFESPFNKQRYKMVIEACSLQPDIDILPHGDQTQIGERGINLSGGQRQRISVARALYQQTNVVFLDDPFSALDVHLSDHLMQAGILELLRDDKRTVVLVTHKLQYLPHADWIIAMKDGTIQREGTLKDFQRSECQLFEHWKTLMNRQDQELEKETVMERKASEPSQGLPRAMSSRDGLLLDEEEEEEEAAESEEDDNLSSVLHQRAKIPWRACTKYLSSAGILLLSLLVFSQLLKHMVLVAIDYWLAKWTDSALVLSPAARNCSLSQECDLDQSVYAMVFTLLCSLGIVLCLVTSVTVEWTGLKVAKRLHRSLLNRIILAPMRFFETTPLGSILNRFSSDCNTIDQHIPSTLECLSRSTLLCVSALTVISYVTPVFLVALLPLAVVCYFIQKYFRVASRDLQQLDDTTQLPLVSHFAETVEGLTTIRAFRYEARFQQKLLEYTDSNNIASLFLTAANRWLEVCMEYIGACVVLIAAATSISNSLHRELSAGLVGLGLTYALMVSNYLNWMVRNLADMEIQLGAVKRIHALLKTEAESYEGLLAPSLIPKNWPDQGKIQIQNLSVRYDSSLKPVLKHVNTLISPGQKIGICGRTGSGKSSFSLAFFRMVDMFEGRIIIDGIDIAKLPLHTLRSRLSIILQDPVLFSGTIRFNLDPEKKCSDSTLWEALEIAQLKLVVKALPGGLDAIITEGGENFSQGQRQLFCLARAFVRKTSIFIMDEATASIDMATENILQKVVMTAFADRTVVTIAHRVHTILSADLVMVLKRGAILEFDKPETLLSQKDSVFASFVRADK
Experimental: To evaluate, in radioligand binding assays, the activity of the compound of Example 1 across a panel of 67 receptors.
Methods employed in this study have been adapted from the scientific literature to maximize reliability and reproducibility. Reference standards were run as an integral part of each assay to ensure the validity of the results obtained.
Where presented, IC50 values were determined by a non-linear, least squares regression analysis using MathIQ™ (ID Business Solutions Ltd., UK). Where inhibition constant (Ki) are presented, the Ki values were calculated using the equation of Cheng and Prusoff (Cheng. Y., Prusoff, W. H., Biochem. Pharmacol. 22:3099-3108, 1973) using the observed IC50 of the tested compound, the concentration of radioligand employed in the assay, and the historical values of the KD of the ligand (obtained experimentally at Eurofins Panlabs, Inc.). Where presented, the Hill coefficient (nH), defining the slope of the competitive binding curve, was calculated using MathIQ™. […] Where IC50, Ki, and/or nH data are presented without Standard Error of the Mean (SEM), data are insufficient to be quantitative, and the values presented (Ki, IC50, nH) should be interpreted with caution.

[5] = target: T12, Serotonin (5-Hydroxytryptamine) 5-HT3 (Homo sapiens, UniProt P46098); experiment: Radioligand binding, Serotonin (5-Hydroxytryptamine) 5-HT3
T12 construct: Eurofins Panlabs

Opiate κ (OP2, KOP) = target: T13, Opiate κ (OP2, KOP) (Homo sapiens, UniProt P41145); experiment: Radioligand binding, Opiate κ (OP2, KOP)
T13 construct: Eurofins Panlabs, Inc
T13 sequence (P41145 whole entry): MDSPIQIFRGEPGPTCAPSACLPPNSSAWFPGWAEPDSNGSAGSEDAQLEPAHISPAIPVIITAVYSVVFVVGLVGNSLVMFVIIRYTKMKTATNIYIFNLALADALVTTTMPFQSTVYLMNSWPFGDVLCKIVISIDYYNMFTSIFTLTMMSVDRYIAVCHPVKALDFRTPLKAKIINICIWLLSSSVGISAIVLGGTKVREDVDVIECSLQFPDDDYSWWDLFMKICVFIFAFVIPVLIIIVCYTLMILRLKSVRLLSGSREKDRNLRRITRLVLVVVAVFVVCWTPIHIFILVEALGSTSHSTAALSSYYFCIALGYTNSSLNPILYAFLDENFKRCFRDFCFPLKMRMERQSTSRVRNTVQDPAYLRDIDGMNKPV

GABAB1A = target: T14, GABAB1A (Homo sapiens, UniProt Q9UBS5); experiment: Radioligand binding, GABAB1A
T14 construct: Eurofins Panlabs, Inc
T14 sequence (Q9UBS5 15-961 limits assumed): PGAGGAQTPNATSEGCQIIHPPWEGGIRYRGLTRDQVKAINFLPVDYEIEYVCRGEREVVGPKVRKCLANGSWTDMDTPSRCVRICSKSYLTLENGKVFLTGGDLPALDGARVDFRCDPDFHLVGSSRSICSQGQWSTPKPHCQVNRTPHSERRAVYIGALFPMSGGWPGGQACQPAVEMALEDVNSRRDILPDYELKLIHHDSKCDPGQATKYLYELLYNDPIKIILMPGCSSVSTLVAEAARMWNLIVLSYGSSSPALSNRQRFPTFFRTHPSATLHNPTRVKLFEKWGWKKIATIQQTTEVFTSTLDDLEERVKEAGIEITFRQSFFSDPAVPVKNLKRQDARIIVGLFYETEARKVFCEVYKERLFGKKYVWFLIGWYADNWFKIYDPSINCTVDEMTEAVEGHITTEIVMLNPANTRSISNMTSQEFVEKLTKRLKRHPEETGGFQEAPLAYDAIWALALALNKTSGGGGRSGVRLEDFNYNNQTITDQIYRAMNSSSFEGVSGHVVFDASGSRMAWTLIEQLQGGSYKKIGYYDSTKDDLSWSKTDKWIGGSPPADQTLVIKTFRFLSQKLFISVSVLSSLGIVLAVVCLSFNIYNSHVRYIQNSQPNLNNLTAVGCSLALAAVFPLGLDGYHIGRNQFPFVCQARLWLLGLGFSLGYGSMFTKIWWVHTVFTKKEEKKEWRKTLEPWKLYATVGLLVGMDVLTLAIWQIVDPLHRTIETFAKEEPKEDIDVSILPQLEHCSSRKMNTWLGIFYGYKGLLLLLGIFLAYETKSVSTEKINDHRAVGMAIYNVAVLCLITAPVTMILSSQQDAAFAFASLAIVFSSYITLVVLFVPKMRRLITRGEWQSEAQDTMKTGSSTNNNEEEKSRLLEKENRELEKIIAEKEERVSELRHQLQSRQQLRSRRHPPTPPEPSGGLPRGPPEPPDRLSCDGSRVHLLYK

[6] = target: T15, Leukotriene, Cysteinyl CysLT1 (Homo sapiens, UniProt Q9Y271); experiment: Radioligand binding, Leukotriene, Cysteinyl CysLT1
T15 construct: Eurofins Panlabs, Inc

| Structure (SMILES) | EC50 (TRPM1) | IC50 (SK-MEL-5 cells) | inhibition at 10 µM (Melatonin MT1) | inhibition at 10 µM [1] | inhibition at 10 µM (Potassium Channel hERG) | inhibition at 10 µM [2] | inhibition at 10 µM [3] | inhibition at 10 µM (Dopamine D3) | inhibition at 10 µM (Adrenergic α1D) | inhibition at 10 µM [4] | inhibition at 10 µM (Interleukin IL-1) | inhibition at 10 µM (Muscarinic M2) | inhibition at 10 µM (Potassium Channel [KATP]) | inhibition at 10 µM [5] | inhibition at 10 µM (Opiate κ (OP2, KOP)) | inhibition at 10 µM (GABAB1A) | inhibition at 10 µM [6] |
| --- | --- | --- | --- | --- | --- | --- | --- | --- | --- | --- | --- | --- | --- | --- | --- | --- | --- |
| NS(=O)(=O)c1ccc(NC2=CC(=O)c3ccccc3C2=O)cc1 [4-((1,4-dioxo-1,4-dihydronaphthalen-2-yl)amino)benzenesulfonamide] | 160 nM | 0.75 µM | – | – | – | – | – | – | – | – | – | – | – | – | – | – | – |
| NS(=O)(=O)c1ccc(NC2=CC(=O)c3ccccc3C2=O)cc1 [Example 1, 4-((1,4-Dioxo-1,4-dihydronaphthalen-2-yl)amino)benzenesulfonamide] | – | – | 9% | 11% | -4% | 3% | 21% | 9% | 21% | -2% | 6% | 15% | 10% | 5% | 19% | 11% | 5% |
